# Values joined by “and” are separate entries in the source; they are usually repeats but may differ in a detail not shown here. Equal entries are not always repeated. “Also recorded” adds a separate entry of the source.
# Test system: ICR-derived mice
# Experiment: Phenylquinone-induced writhing assay in mice, IP and oral (Example 17)
# Format: in vivo
# Settings: for % Inhibition / Number of Writhings Average / Number of Writhings Individual: Table 2; for Number of Writhings Individual: individual mice; for Died (mortality, animals of group of 3): within 30 minutes after administration
# Experimental: Further testing on compound KRS-5–150 was carried out under contract by MDS Pharma Services—Taiwan Ltd. The study was designed to evaluate the effects of the compound as an analgesic in the phenylquinone-induced writhing assay, which was described in the previous example, and in the radiant heat-induced tail-flick response assay in mice (D'Amour et al., 1941).
# For the phenylquinone writhing test, groups of three male or female ICR-derived mice weighing 22±2 g were used. For the phenylquinone writhing test, KRS-5-150 at doses of 1, 2, 4, 8, 16, 32, 64 and 128 mg/kg in either 2% Tween 80/0.9% NaCl or in 2% Tween 80 was used for intraperitoneal administration, or at doses of 1, 2, 4, 8, 16, 32 or 64 mg/kg in the same vehicles for oral administration. Control animals received vehicle alone. […] A reduction in the number of writhes by 50% or more (≧50%) relative to the vehicle-treated group indicated possible analgesic activity.
smiles,measurement,setting,value
"Oc1ccc2c3c1O[C@H]1[C@@H](O)C=C[C@H]4[C@@H](C2)N(CCCNC(=Nc2ccccc2)Nc2ccccc2)CC[C@@]341 [KRS-5-150, (5α,6α)-7,8 didehydro-4,5-epoxy-17-(N,N′-bisphenylcarboxamidino-3-aminopropyl)morphinan,3,6-diol]",% Inhibition,"IP, 1 mg/kg",13%
same,Number of Writhings Average,"IP, 1 mg/kg",14
same,Number of Writhings Individual,"IP, 1 mg/kg",16 and 13 and 14
same,% Inhibition,"IP, 2 mg/kg",31%
same,Number of Writhings Average,"IP, 2 mg/kg",11
same,Number of Writhings Individual,"IP, 2 mg/kg",13 and 11 and 8
same,% Inhibition,"IP, 4 mg/kg",(56) %
same,Number of Writhings Average,"IP, 4 mg/kg",7
same,Number of Writhings Individual,"IP, 4 mg/kg",2 and 11 and 8
same,% Inhibition,"IP, 8 mg/kg",(88) %
same,Number of Writhings Average,"IP, 8 mg/kg",2
same,Number of Writhings Individual,"IP, 8 mg/kg",0 and 4 and 2
same,% Inhibition,"IP, 16 mg/kg",(69) %
same,Number of Writhings Average,"IP, 16 mg/kg",5
same,Number of Writhings Individual,"IP, 16 mg/kg",4 and 2 and 9
same,% Inhibition,"IP, 32 mg/kg",(100) %
same,Number of Writhings Average,"IP, 32 mg/kg",0
same,Number of Writhings Individual,"IP, 32 mg/kg",0
same,Number of Writhings Individual,"IP, 64 mg/kg",Died and 0 (2×)
same,"Died (mortality, animals of group of 3)","IP, 64 mg/kg, 64 mg/kg",1 of 3 and ⅓ and 1/3 Died
same,Number of Writhings Individual,"IP, 128 mg/kg",0 and Died (2×)
same,"Died (mortality, animals of group of 3)","IP, 128 mg/kg, 128 mg/kg",2 of 3 and ⅔ and 2/3 Died
same,analgesic activity in writhing test,given IP,active
same,analgesic activity (≧50% reduction in writhes),"intraperitoneal, doses of 4, 8, 16 and 32 mg/kg",Significant activity
same,analgesic activity (≧50% reduction in writhes),"oral administration, 1 to 64 mg/kg",not when given orally; also recorded: not after oral administration
same,% Inhibition,"oral, 1 mg/kg",0%
same,Number of Writhings Average,"oral, 1 mg/kg",16
same,Number of Writhings Individual,"oral, 1 mg/kg",25 and 8 and 14
same,% Inhibition,"oral, 2 mg/kg",0%
same,Number of Writhings Average,"oral, 2 mg/kg",14
same,Number of Writhings Individual,"oral, 2 mg/kg",9 and 21 and 11
same,% Inhibition,"oral, 4 mg/kg",0%
same,Number of Writhings Average,"oral, 4 mg/kg",14
same,Number of Writhings Individual,"oral, 4 mg/kg",9 and 15 and 17
same,% Inhibition,"oral, 8 mg/kg",0%
same,Number of Writhings Average,"oral, 8 mg/kg",15
same,Number of Writhings Individual,"oral, 8 mg/kg",17 and 21 and 6
same,% Inhibition,"oral, 16 mg/kg",0%
same,Number of Writhings Average,"oral, 16 mg/kg",14
same,Number of Writhings Individual,"oral, 16 mg/kg",6 and 17 and 18
same,% Inhibition,"oral, 32 mg/kg",0%
same,Number of Writhings Average,"oral, 32 mg/kg",15
same,Number of Writhings Individual,"oral, 32 mg/kg",12 and 14 and 18
same,% Inhibition,"oral, 64 mg/kg",14%
same,Number of Writhings Average,"oral, 64 mg/kg",12
same,Number of Writhings Individual,"oral, 64 mg/kg",12 and 5 and 18

# Reference: patent publication US7199129B2, “Derivatives of morphine-like opioid compounds” (Monash University, priority 2001, dated 2007)
